{"source": "paper PMC6615261", "about": "“Repurposing Azithromycin and Rifampicin Against Gram-Negative Pathogens by Combination With Peptidomimetics” (Frontiers in Cellular and Infection Microbiology, 2019)", "key": {"P. aeruginosa ATCC 27853": {"tested_on": "P. aeruginosa ATCC 27853", "assay": "MIC by broth microdilution", "type": "cell-based, Pseudomonas aeruginosa", "conditions": "peptidomimetic alone", "method_in_brief": "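Potentiation is scored as MIC of standard antibiotics in prepared dilution plates with peptidomimetic present, added just prior to pathogen inoculation. MICs are read by CLSI broth microdilution.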"}, "[1]": {"assay": "MTS/PMS cell viability assay", "type": "cell-based, mouse", "conditions": "mouse, NIH 3T3 fibroblasts, 1 h exposure, read-out: Cytotoxicity NIH 3T3 EC50 ± SD", "method_in_brief": "(§1)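 NIH 3T3 and HepG2 cells at 80–90% confluence exposed 1 h to compound in serum-free medium, then MTS/PMS added for 1 h at 37 °C; absorbance read at 492 nm. Viability normalized to medium (0% death) and 0.2% SDS (100% death); EC50 from Hill fit constrained 0–100%, technical triplicates.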"}, "[2]": {"tested_on": "E. coli clinical isolates and reference strains", "assay": "MIC of fixed-ratio peptidomimetic 1-antibiotic combinations in clinical isolates and reference strains", "type": "cell-based, Escherichia coli", "conditions": "with rifampicin or azithromycin", "description": "(§2) Bacterial strains used in this study comprise MDR clinical isolates of E. coli ST131 (Cerquetti et al., [2010]) and K. pneumoniae ST258 (Jana et al., [2017]), and American type culture collection (ATCC) strains: ATCC 25922 (E. coli), ATCC 13883 (K. pneumoniae), and ATCC 27853 (P. aeruginosa). Additional clinical isolates of E. coli, K. pneumoniae, and P. aeruginosa resistant to β-lactams (including carbapenems and cephalosporins) were provided by Laurent Poirel, Université de Fribourg, Switzerland. The following growth media was routinely used for bacterial culturing: Luria-Burtani (LB), cation-adjusted Mueller-Hinton agar (MHA) and broth (MHB II). All assays were performed in cation-adjusted MHA or MHB II. Antibiotics were purchased from Sigma-Aldrich and the peptidomimetic collection (Table S1) was curated and provided by Henrik Franzyk. […]\n(§3) Minimal inhibitory concentrations (MICs) of peptidomimetics, antibiotics and their combinations were determined by broth microdilution according to the Clinical Laboratory Standards Institute performance standards (Clinical and Laboratory Standards Institute, [2013]). […] Potentiation of additional antibiotics by peptidomimetics was determined by using commercial 96-well plates containing varied concentrations of standard antibiotics (COMPAN1F; Trek Diagnostic Systems Inc.). The peptidomimetics were added immediately prior to inoculation with pathogen, and then MICs were determined as above. The MICs of peptidomimetic/antibiotic combinations were determined according to the method above, and the concentration ratios were selected based upon checkerboard results with 2:1 and 1:4 ratio of peptidomimetic with rifampicin or azithromycin, respectively. Minimal bactericidal concentrations (MBCs) were determined by using growth-curve assay plates. […] Growth was recorded at 10 min intervals as optical density (OD) at 600 nm during 24 h. […]"}, "[3]": {"tested_on": "isolates of E. coli, K. pneumoniae and P. aeruginosa", "assay": "Induction of susceptibility in MDR isolates (summary over all three species)", "type": "cell-based", "conditions": "peptidomimetic 1 at ≤1 μM; 30 of 36 isolates", "description": "as §2, with “II.” for “II. Antibiotics were purchased from Sigma-Aldrich and the peptidomimetic collection (Table S1) was curated and provided by Henrik Franzyk.”\n(§4) Minimal inhibitory concentrations (MICs) of peptidomimetics, antibiotics and their combinations were determined by broth microdilution according to the Clinical Laboratory Standards Institute performance standards (Clinical and Laboratory Standards Institute, [2013]). […] Potentiation of additional antibiotics by peptidomimetics was determined by using commercial 96-well plates containing varied concentrations of standard antibiotics (COMPAN1F; Trek Diagnostic Systems Inc.). The peptidomimetics were added immediately prior to inoculation with pathogen, and then MICs were determined as above. […] Minimal bactericidal concentrations (MBCs) were determined by using growth-curve assay plates. […]"}, "[4]": {"tested_on": "P. aeruginosa clinical isolates and reference strains", "assay": "MIC of fixed-ratio peptidomimetic 1-antibiotic combinations in clinical isolates and reference strains", "type": "cell-based, Pseudomonas aeruginosa", "conditions": "with rifampicin or azithromycin", "description": "as §2, §3"}, "[5]": {"assay": "MTS/PMS cell viability assay", "type": "cell-based", "conditions": "human, HepG2 hepatocytes, 1 h exposure, read-out: Cytotoxicity HepG2 EC50 ± SD", "method_in_brief": "as §1"}, "K. pneumoniae ST258": {"tested_on": "K. pneumoniae ST258", "assay": "Screening of peptidomimetic-antibiotic combinations (growth / growth inhibition)", "type": "cell-based, Klebsiella pneumoniae", "design": "key to Growth in combination with RIF / Growth in combination with AZM: Growth (+); growth inhibition (–)"}, "[6]": {"tested_on": "K. pneumoniae clinical isolates and reference strains", "assay": "MIC of fixed-ratio peptidomimetic 1-antibiotic combinations in clinical isolates and reference strains", "type": "cell-based, Klebsiella pneumoniae", "conditions": "with rifampicin or azithromycin", "description": "as §2, with “II.” for “II. Antibiotics were purchased from Sigma-Aldrich and the peptidomimetic collection (Table S1) was curated and provided by Henrik Franzyk.”\nas §4"}, "E. coli ST131": {"tested_on": "E. coli ST131", "assay": "MIC by broth microdilution", "type": "cell-based, Escherichia coli", "conditions": "peptidomimetic alone", "method_in_brief": "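MICs of peptidomimetics, antibiotics and their combinations were measured by CLSI broth microdilution. Combination ratios came from checkerboard results: peptidomimetic to rifampicin 2:1, to azithromycin 1:4. For potentiation, peptidomimetic was added to preformed antibiotic-gradient panels just before inoculation.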"}}, "note": "Like-named read-outs stand apart in the source and are kept apart here.", "data": [{"smiles": "NCCCC[C@H](NC(=O)CCN(Cc1ccccc1)C(=O)[C@H](CCCCN)NC(=O)CCN(Cc1ccccc1)C(=O)[C@H](CCCCN)NC(=O)CCN(Cc1ccccc1)C(=O)[C@H](CCCCN)NC(=O)CCN(Cc1ccccc1)C(=O)[C@H](CCCCN)NC(=O)CCN(Cc1ccccc1)C(=O)[C@H](CCCCN)NC(=O)CCN(Cc1ccccc1)C(=O)[C@H](CCCCN)NC(=O)CCN(Cc1ccccc1)C(=O)[C@@H](N)CCCCN)C(=O)N(CCC(N)=O)Cc1ccccc1", "note": "[Peptidomimetic 1, H-(Lys-βNPhe)8-NH2]", "values": [{"measurement": "MIC P. aeruginosa ATCC 27853", "setting": "P. aeruginosa ATCC 27853", "result": 1, "unit": "µM"}, {"measurement": "EC50 at 1 h", "setting": "[1]", "result": "211 ± 26.8", "unit": "µM"}, {"measurement": "Peptidomimetic concentration in combination, most E. coli isolates", "setting": "[2]", "result": "0.5 to 1", "unit": "µM"}, {"measurement": "Isolates in which susceptibility to rifampicin and azithromycin was induced", "setting": "[3]", "result": 83, "unit": "%"}, {"measurement": "Peptidomimetic concentration typically required, P. aeruginosa isolates", "setting": "[4]", "result": "1 to 8", "unit": "µM"}, {"measurement": "EC50 at 1 h", "setting": "[5]", "result": "124 ± 0.81", "unit": "µM"}, {"measurement": "Screening result with rifampicin", "setting": "K. pneumoniae ST258; 0.5 μM peptidomimetic + 0.5 μg/mL rifampicin", "result": "inhibit growth"}, {"measurement": "Screening result with azithromycin", "setting": "K. pneumoniae ST258; 0.5 μM peptidomimetic + 1 μg/mL azithromycin", "result": "prevented growth"}, {"measurement": "Growth in combination with AZM", "setting": "K. pneumoniae ST258; peptidomimetic 0.5 μM + azithromycin 1 μg/mL", "result": "–"}, {"measurement": "Growth in combination with RIF", "setting": "K. pneumoniae ST258; peptidomimetic 0.5 μM + rifampicin 0.5 μg/mL", "result": "–"}, {"measurement": "Peptidomimetic concentration required to induce susceptibility, three K. pneumoniae isolates", "setting": "[6]", "result": "2 to 8", "unit": "µM"}, {"measurement": "MIC E. coli ST131", "setting": "E. coli ST131", "result": 2, "unit": "µM"}]}]}
